Laboratory results from ChEMBL document CHEMBL3734721 (J Med Chem, 2015).
Converted amounts (≈) assume the structure as drawn.

How the values were obtained:
[1] = Chemical stability of compound in DMSO assessed as compound remaining at 10 mg/ml after 2 days at room temperature; format: physicochemical; conditions: read-out: Stability
HepG2 = experiment: Cytotoxicity against human HepG2 cells; format: cell-based
[2] = Chemical stability of compound in buffer at pH 7.4 assessed as compound remaining at 10 mg/ml after 1 day; format: physicochemical; conditions: read-out: Stability
[3] = Chemical stability of compound in DMSO assessed as compound remaining at 10 mg/ml after 1 day at room temperature; format: physicochemical; conditions: read-out: Stability
[4] = biological target: T1, 5-hydroxytryptamine receptor 7 (Homo sapiens, UniProt P34969); experiment: Agonist activity at human wild-type 5-HT7 receptor expressed in HEK cells assessed as cAMP by HTRF assay; format: functional, cell-based, HEK293
[5] = Fraction unbound in rat brain at 5 uM after 5 hrs by LC-MS/MS analysis; format: ADME, tissue-based
[6] = Chemical stability of compound in DMSO assessed as compound remaining at 10 mg/ml after 24 days at room temperature under air; format: physicochemical; conditions: read-out: Stability
[7] = Chemical stability of compound in 0.1N NaOH assessed as compound remaining at 10 mg/ml after 1 day; format: physicochemical; conditions: read-out: Stability
Cytochrome P450 2C19 = Cytochrome P450 2C19 (Homo sapiens, UniProt P33261); experiment: Inhibition of human CYP2C19 by LC-MS analysis; format: ADME
[8] = Fraction unbound in mouse plasma at 5 uM after 4.5 hrs by LC-MS/MS analysis; format: ADME, cell-free
Cytochrome P450 2C8 = biological target: T2, Cytochrome P450 2C8 (Homo sapiens, UniProt P10632); experiment: Inhibition of human CYP2C8 by LC-MS analysis; format: ADME
T2 sequence (P10632 whole entry): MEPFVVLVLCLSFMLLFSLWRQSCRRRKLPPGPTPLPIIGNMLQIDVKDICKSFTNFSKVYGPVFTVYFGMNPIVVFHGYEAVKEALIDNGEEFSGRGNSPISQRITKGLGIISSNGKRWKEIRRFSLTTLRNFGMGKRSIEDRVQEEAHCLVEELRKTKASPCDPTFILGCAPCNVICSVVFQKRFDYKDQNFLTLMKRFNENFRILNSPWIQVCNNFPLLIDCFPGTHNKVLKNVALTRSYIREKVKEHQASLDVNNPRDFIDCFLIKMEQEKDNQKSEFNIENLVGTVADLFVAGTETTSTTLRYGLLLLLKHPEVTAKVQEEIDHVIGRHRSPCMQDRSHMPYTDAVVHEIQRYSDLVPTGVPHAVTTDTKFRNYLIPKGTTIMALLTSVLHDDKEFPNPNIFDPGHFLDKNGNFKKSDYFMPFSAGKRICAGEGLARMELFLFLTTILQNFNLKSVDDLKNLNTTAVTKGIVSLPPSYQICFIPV

[9] = Cmax in Swiss mouse brain at 5 mg/kg, sc; format: ADME, organism-based; set-up: dose 5 mg/kg, route subcutaneous
Cytochrome P450 2C9 = Cytochrome P450 2C9 (Homo sapiens, UniProt P11712); experiment: Inhibition of human CYP2C9 by LC-MS analysis; format: ADME
[10] = Chemical stability of compound in 0.1N HCL assessed as compound remaining at 10 mg/ml after 1 day; format: physicochemical; conditions: read-out: Stability
[11] = Chemical stability of compound in buffer at pH 7.4 assessed as compound remaining at 10 mg/ml after 2 days; format: physicochemical; conditions: read-out: Stability
[12] = Chemical stability of compound in 0.1N HCL and 0.5% H2O2 assessed as compound remaining at 10 mg/ml after 1 day; format: physicochemical; conditions: read-out: Stability
[13] = Chemical stability of compound in 0.1N NaOH assessed as compound remaining at 10 mg/ml after 2 days; format: physicochemical; conditions: read-out: Stability
[14] = Kinetic solubility of compound in phosphate buffer at pH 7.4 for 4 hrs by UPLC/UV analysis; format: physicochemical; conditions: read-out: Kinetic_solubility
[15] = Ratio of drug level in brain to plasma in Swiss mouse at 5 mg/kg, sc; format: ADME, organism-based; conditions: read-out: BPR
[16] = Fraction unbound in human plasma at 5 uM after 4.5 hrs by LC-MS/MS analysis; format: ADME, cell-free
[17] = biological target: T3, 5-hydroxytryptamine receptor 6 (Homo sapiens, UniProt P50406); experiment: Agonist activity at human 5-HT6 receptor expressed in 1321N1 cells assessed as cAMP by HTRF assay; format: functional, cell-based
[18] = biological target: T1, 5-hydroxytryptamine receptor 7; experiment: Antagonist activity at human wild-type 5-HT7 receptor expressed in HEK cells assessed as seretonin-induced cAMP by HTRF assay; format: functional, cell-based, HEK293
[19] = Fraction unbound in rat plasma at 5 uM after 4.5 hrs by LC-MS/MS analysis; format: ADME, cell-free
Cytochrome P450 1A2 = biological target: T4, Cytochrome P450 1A2 (Homo sapiens, UniProt P05177); experiment: Inhibition of human CYP1A2 by LC-MS analysis; format: ADME
T4 sequence (P05177 whole entry): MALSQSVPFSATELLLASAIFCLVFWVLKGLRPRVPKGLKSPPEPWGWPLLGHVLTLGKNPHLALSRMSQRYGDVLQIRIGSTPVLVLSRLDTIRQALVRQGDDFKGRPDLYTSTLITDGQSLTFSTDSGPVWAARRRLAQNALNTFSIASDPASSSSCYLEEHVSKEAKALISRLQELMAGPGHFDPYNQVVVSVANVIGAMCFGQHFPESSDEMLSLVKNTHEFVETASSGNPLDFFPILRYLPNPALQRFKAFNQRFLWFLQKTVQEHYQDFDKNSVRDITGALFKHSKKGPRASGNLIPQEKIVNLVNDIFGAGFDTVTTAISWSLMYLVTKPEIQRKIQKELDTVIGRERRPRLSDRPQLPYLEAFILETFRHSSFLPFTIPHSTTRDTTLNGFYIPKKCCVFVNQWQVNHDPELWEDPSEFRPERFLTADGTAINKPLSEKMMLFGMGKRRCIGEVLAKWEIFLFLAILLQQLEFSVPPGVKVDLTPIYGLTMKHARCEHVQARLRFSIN

human MDR1 = experiment: Permeability across apical to basolateral in MDCK expressing human MDR1 at 5 uM by LC-MS/MS method; format: ADME, cell-based, Canis lupus familiaris; conditions: dog, read-out: permeability
[20] = biological target: T3, 5-hydroxytryptamine receptor 6; experiment: Antagonist activity at human 5-HT6 receptor expressed in 1321N1 cells assessed as seretonin-induced cAMP by HTRF assay; format: functional, cell-based

T3 sequence (P50406 whole entry): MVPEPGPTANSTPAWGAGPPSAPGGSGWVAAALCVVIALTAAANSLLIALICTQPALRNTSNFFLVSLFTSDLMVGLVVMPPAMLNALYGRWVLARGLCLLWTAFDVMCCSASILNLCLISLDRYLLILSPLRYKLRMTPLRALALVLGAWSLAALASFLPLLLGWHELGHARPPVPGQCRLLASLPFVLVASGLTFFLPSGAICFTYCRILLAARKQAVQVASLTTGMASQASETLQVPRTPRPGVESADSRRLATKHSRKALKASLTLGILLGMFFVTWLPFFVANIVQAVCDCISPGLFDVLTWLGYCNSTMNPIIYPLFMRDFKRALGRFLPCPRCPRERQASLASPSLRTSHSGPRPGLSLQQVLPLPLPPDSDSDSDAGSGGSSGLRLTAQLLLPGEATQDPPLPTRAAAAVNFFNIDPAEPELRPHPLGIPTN
T1 sequence (P34969 whole entry): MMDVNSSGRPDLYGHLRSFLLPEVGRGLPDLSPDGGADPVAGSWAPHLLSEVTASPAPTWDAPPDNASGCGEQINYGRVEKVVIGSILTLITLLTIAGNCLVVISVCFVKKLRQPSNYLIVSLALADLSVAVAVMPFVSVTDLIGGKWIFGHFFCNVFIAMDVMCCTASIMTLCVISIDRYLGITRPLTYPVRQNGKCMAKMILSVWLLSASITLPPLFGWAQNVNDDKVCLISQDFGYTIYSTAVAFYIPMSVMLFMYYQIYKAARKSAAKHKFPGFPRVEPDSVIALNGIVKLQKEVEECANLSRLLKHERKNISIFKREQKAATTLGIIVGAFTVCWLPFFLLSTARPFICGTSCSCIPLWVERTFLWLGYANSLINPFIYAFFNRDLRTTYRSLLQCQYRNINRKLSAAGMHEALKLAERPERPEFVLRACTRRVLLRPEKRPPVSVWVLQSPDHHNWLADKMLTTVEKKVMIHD
Sequence of Cytochrome P450 2C9 (P11712 whole entry): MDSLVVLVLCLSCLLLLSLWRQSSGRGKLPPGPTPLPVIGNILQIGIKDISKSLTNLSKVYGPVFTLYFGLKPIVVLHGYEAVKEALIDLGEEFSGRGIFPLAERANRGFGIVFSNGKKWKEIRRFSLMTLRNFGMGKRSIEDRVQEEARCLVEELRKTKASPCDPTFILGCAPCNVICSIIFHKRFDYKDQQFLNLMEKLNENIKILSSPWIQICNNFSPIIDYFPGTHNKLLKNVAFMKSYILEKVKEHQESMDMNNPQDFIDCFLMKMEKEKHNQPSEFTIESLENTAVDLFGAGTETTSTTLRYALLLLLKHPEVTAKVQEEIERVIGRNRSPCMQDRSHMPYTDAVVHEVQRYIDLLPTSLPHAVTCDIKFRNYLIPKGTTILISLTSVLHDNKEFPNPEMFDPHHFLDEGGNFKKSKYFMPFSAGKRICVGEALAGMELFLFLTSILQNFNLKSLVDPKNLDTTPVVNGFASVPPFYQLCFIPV
Sequence of Cytochrome P450 2C19 (P33261 whole entry): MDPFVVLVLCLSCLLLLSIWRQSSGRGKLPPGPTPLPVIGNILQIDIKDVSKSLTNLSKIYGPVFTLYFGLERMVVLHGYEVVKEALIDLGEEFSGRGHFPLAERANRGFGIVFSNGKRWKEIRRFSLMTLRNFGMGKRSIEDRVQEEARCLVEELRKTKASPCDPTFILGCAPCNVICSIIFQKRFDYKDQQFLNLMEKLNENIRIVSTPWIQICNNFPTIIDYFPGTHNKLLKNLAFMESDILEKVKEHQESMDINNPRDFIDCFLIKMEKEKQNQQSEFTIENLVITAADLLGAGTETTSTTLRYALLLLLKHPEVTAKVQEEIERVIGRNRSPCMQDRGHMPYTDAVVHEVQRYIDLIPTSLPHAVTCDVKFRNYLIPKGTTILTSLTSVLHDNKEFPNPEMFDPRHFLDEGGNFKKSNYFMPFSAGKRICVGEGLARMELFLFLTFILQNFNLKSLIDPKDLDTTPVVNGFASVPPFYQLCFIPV

CC(C)NCC(O)COc1cccc2ccccc12 (stereo unspecified) [PROPRANOLOL]
remaining at 48 h, 10 mg/ml [1]: 100% | EC20 (HepG2): > 100 µM | remaining at 24 h, 10 mg/ml [2]: 100% | remaining at 24 h, 10 mg/ml [3]: 100% | EC50 [4]: > 5.01 µM | fraction unbound at 5 h, 5 µM [5]: 0.028 | remaining at 576 h, 10 mg/ml [6]: 100% | remaining at 24 h, 10 mg/ml [7]: 100% | IC50 (Cytochrome P450 2C19): > 10 µM | fraction unbound at 4.5 h, 5 µM [8]: 0.212 | IC50 (Cytochrome P450 2C8): > 10 µM | Cmax [9]: 16 µM | IC50 (Cytochrome P450 2C9): > 10 µM | remaining at 24 h, 10 mg/ml [10]: 100% | remaining at 48 h, 10 mg/ml [11]: 100% | remaining at 24 h, 10 mg/ml [12]: 100% | remaining at 48 h, 10 mg/ml [13]: 100% | solubility kinetic at 4 h [14]: 764 µM (≈ 198 µg/mL) | Kp [15]: 23 | fraction unbound at 4.5 h, 5 µM [16]: 0.421 | EC50 [17]: > 5.01 µM | IC50 [18]: > 5.01 µM | fraction unbound at 4.5 h, 5 µM [19]: 0.239 | IC50 (Cytochrome P450 1A2): > 10 µM | Papp A→B at 5 µM (human MDR1): 3.5 ×10⁻⁶ cm/s | IC50 [20]: > 5.01 µM
